In patent US7820720B2 (TDT Limited, priority 2008, dated 2010):

Experiment: Terbinafine serum concentration after topical administration (LC-MSMS)
Type: in vivo, human
Settings: topical terbinafine formulation, 6.0 mg dose; day 1 and week 12; all individuals, each time point, steady state and all trough levels
Experimental: Blood samples (2.7 ml) for the determination of terbinafine concentrations in serum were taken before the first application (0 hour) and 0.5, 1, 2, 4, 8, and 12 hours after administration of a 6.0 mg dose of topical terbinafine. The sample 12 hours following the first administration was taken before the second daily administration of the topical terbinafine formulation.
Serum samples for terbinafine were analyzed by LC-MSMS. The internal standard used was naftifine. Samples were prepared by adding 50 μL serum to 50 μL methanol and 300 μL of internal standard solution (50 μg/L naftifine in 9:1 acetonitrile/methanol solution). The solution was allowed to stand for 5 minutes, and then subjected to centrifugation. After centrifugation, 50 μL of the supernatant was added to 450 μL of the mobile phase solution.
The serum concentrations were measured at day 1 and week 12 of the study.

Terbinafine serum concentration: less than 1 ng/ml
SMILES: CN(C/C=C/C#CC(C)(C)C)Cc1cccc2ccccc12 [terbinafine]
